Measurements: patent US5476847A, “Derivatives of phosphinic acid useful as endothelin converting enzyme inhibitors” (priority 1994, dated 1995)
Like-named read-outs stand apart in the source and are kept apart here.

Tests used:
[1] = system: I/H-induced ET-1 release in isolated perfused guinea pig lungs; assay: Isolated Perfused Guinea Pig Lung Method (ischemia/hypoxia, I/H); format: in vivo; details: iv, 10 mg/kg
Protocol: The method is as described by Vemulapalli et al., in J. PharmacoL Exp. Therap., 262, 3 (1992), pp. 1062-1069. Briefly, male Dunkin-Hartley guinea pigs (400-600 g) are anesthetized with pentobarbital 30 mg/kg, ip. The trachea is cannulated to facilitate respiration. The right jugular vein is cannulated to administer saline vehicle or test compound, or compounds are administered orally or subcutaneously. Ten minutes after the administration of saline vehicle or test compound, a thoracotomy is performed and the trachea, lungs and heart are removed intact and placed in warmed Tyrode's buffer (34°-35° C.) of the following composition in mM: NaCl 120, KCl 4.8, MgSO4.7H2 O 1.2, KH2 PO4 1.2, NaHCO3 25, CaCl2.2H2 O […], glucose 11 and BSA 0.5%. The pulmonary artery and trachea are cannulated and the lungs are mounted on a perfusion apparatus. Lungs are perfused at a rate of 3.2 ml/min via the pulmonary artery with oxygenated (95% O 2 and 5% CO2) Tyrode's solution maintained at 34°-35° C. The lungs are mechanically ventilated with room air with a volume of 2.5 ml/stroke and 50 strokes/min. Pulmonary insufflation pressure (PIP) is monitored through a side arm of the perfusion apparatus with a Statham pressure transducer and recorded on a Grass polygraph. Lungs are allowed to stabilize for 15 min. Lung effluents (50 ml) are collected every 15 min into chilled polypropylene centrifuge tubes (Corning) containing 100 μl each of aprotinin (200 kallikrein inhibitory units/ml) and soybean trypsin inhibitor (20N-α-benzoyl-L-arginine ethyl ester units/ml). Ischemia-hypoxia (I/H) is produced by cessation of ventilation and perfusion for 15 min followed by reperfusion and reventilation for 60 min. At the end of the experiment, the lungs are tested for cardiopulmonary reactivity by challenging with 5-hydroxy-tryptamine (0.5 mg) directly into the lungs via a pulmonary artery cannula.
In a separate study, anesthetized guinea pigs are administered saline vehicle or test compound. Ten minutes later, the lungs are removed and mounted on a perfusion apparatus as described above. After an equilibration period of 15 min, BET-1 (30 μg over 15 min) or ET-1 (0.6 μg over 15 min) is infused directly into the perfusion medium and the effects on PIP in vehicle and test compound-treated guinea pig lungs are assessed.
FIGS. 3 to 6 show the results of four compounds of the invention on I/H-induced ET-1 release in isolated perfused guinea pig lungs. The compounds include Compounds A and B, identified above, and: […]

ECE = target: T1, ECE (Cavia porcellus, UniProt P97739); assay: In vitro ECE assay (inhibition of [125I]BET-1 to [125I]ET-1 conversion, lubrol-treated guinea pig lung membrane); format: biochemical; details: L-GPLGM
T1 construct: tissue Keystone Biologicals, Cleveland, Ohio; host or cells: frozen guinea pig lungs; lubrol PX-treated lung membranes
T1 sequence (P97739 1-754): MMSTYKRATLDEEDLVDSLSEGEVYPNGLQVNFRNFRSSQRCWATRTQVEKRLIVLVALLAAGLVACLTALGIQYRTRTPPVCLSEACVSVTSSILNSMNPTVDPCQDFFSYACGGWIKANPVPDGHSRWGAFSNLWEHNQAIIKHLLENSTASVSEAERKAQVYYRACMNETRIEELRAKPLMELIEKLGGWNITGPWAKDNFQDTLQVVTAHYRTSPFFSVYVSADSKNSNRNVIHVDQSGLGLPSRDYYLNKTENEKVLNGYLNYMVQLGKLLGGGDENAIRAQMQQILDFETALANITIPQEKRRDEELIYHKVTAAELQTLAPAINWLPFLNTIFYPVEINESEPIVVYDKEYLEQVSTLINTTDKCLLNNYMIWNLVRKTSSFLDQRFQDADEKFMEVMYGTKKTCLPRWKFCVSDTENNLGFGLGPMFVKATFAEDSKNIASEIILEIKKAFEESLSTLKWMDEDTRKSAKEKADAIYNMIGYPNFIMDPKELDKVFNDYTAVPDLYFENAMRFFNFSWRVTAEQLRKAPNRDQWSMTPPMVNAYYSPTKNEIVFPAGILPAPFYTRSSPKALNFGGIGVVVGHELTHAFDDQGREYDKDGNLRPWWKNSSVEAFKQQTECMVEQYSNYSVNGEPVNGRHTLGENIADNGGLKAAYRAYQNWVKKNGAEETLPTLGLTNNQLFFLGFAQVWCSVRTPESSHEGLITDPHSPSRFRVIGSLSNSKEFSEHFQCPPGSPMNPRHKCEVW
From the text: The ECE assay is based on the quantitative determination of [^125 l]ET-1 released from [^125 l]BET-1 labeled on Tyrosine-13 by binding to the membrane-bound ET receptor. […] GPLGM was also found to contain a high density of ET receptors. Thus, this preparation was utilized as a source of both ECE and a saturating concentration of ET receptors for the quantitative determination of [251l]ET-1 from the conversion of [125l ]BET-1. Under selected experimental conditions of the ECE assay, specific [125l]ET-1 bound was directly related to ECE activity. Assays were carried out in the presence of varying concentrations of test compounds to evaluate their efficacy in inhibiting ECE activity.
Frozen guinea pig lungs (Keystone Biologicals,Cleveland, Ohio) are weighed and homogenized in 10 times gram tissue weight of solution A (50 mM Tris-HCl, pH 7.4, 0.25M sucrose, and 2 mM EDTA) using a Polytron tissue homogenizer (probe PTA-20S). Homogenization is repeated four times at speed setting seven each for 10 s and with 5-8 min intervals on ice in between homogenization. Homogenates are spun for 30 min at 2000 g (4100 rpm in an SS34 rotor or 3800 rpm in an SA-600 rotor). Supernatants containing membranes are carefully decanted and saved. Pellets are rehomogenized in solution A as described, and homogenates are spun at 2000 g for 30 min. Supernatants are removed, mixed with the supernatants from the first spin, and spun at 37000 rpm in a 45 Ti rotor (107022 g) for 60 min. Pellets containing membranes are suspended in solution B (10 mM Tris-HCl, pH 7.4, and 0.125M sucrose) using a Dounce homogenizer. Samples are divided into 1 ml fractions, rapidly frozen in a dry ice methanol bath, and stored at -80° C. All steps are carried out at 4° C.
GPLGM fractions prepared as described above are thawed and resuspended at a concentration of 1 mg membrane protein/mL in a solution containing 0.06% lubrol PX, 50 mM Tris-HCl (pH 7.4), and 100 mM NaCl. Stir the mixture for 1 h and then spin for 1 h at 37000 rpm in a 45 Ti rotor (107022 g). Discard the supernatants and resuspend the pellets in a solution containing 50 mM Tris-HCl (pH 7.4), and 100 mM NaCl using a Dounce homogenizer, and adjust the final volume to half the original volume. Spin the homogenates for 1 h at 37000 rpm in a 45 Ti rotor (107022 g). Suspend the membrane pellets in solution B and treat as described above. All steps are performed at 4° C.
ECE Assay: Samples of L-GPLGM containing 20 μg protein are incubated in a solution containing 100 mM Tris-HCl (pH 7), 100 mM NaCl, and 5 mg/ml BSA (Fraction V, 98-99% albumin) (Sigma Chemical Co.) at a final reaction volume of 100 μL. The ECE assay is initiated by the addition of [^125 l]BET-1 to obtain a final concentration of 500 pM. Reactions are carried out for 30 min at 37° C. Reactions are terminated by addition of 4 mL of solution C (10 mM Tris-HCl, pH 7.4, and 150 mM NaCl) at 4° C. followed by rapid filtration on Whatman GF/B glass microfiber filters. Filters are presoaked for 1 h at 4° C. in a solution containing 50 mM Tris-HCl (pH 7.4), 10 mg/mL BSA, and 0.1% sodium azide. Wash test tubes and filters four times with 4 mL of solution C at 4° C., and count radioactivity retained on the filters in a γ counter. Non-specific binding is determined in the presence of 1 μM of unlabeled ET-1 (Peninsula Laboratories, Inc., Belmont, Calif.) in the reaction mixture. All reactions are performed in duplicate.
To test the effect of test compounds on ECE activity, ECE assays are carried out in the presence of varying concentrations of the compounds. Assays are initiated following a 2 h incubation of L-GPLGM with the compound at 4° C. ECE activity in the presence of compounds is expressed as a percentage of control ECE activity of the membrane preparation, which is determined simultaneously.

[2] = table of additional compounds, read-out: IC50 (in vitro ECE inhibition activity)
[3] = 2 h preincubation at 4° C., 500 pM [125I]BET-1, table of examples, read-out: ECE IC50

IC50 (ECE; [2]) [µM]	IC50 (ECE; [3]) [µM]	SMILES	also measured
	0.04	CC(C)CC(CP(=O)(O)C(CC(C)C)NC(=O)[C@H](CCCCNC(=O)OCc1ccccc1)NS(C)(=O)=O)C(=O)N[C@@H](Cc1c[nH]c2ccccc12)C(=O)O (single isomer, unassigned) [Example 10A]	
	0.055	CS(=O)(=O)N[C@@H](CCCCNC(=O)OCc1ccccc1)C(=O)NC(Cc1ccc(O)cc1)P(=O)(O)CC1(C(=O)N[C@@H](Cc2c[nH]c3ccccc23)C(=O)O)CCCC1 (some centres unmarked) [Example 3B]	
	0.04	COc1ccc(CC(NC(=O)[C@H](CCCCN)NS(C)(=O)=O)P(=O)(O)CC2(C(=O)N[C@@H](Cc3c[nH]c4ccccc34)C(=O)O)CCCC2)cc1 (some centres unmarked) [Example 5A]	
	4.5	CC(C)CC(CP(=O)(O)C(Cc1ccc2ccccc2c1)NC(=O)[C@H](CCCCNC(=O)OCc1ccccc1)NS(C)(=O)=O)C(=O)N[C@@H](Cc1c[nH]c2ccccc12)C(=O)O (single isomer, unassigned) [Example 9B]	
	0.8	O=C(NC(Cc1ccccc1)P(=O)(O)CC1(C(=O)N[C@@H](Cc2c[nH]c3ccccc23)C(=O)O)CCCCCC1)OCc1ccccc1 (some centres unmarked) [Example 1C]	
	0.2	CC(C)C(CP(=O)(O)C(Cc1ccccc1)NC(=O)[C@H](CCC(N)=O)NC(=O)OCc1ccccc1)C(=O)N[C@@H](Cc1c[nH]c2ccccc12)C(=O)O (some centres unmarked) [Example 10C]	

The next lines start with the molecule.

SMILES	IC50 (ECE; [2]) [µM]	IC50 (ECE; [3]) [µM]	also measured
CC(C)CC(CP(=O)(O)C(Cc1ccccc1)NC(=O)C(CC(C)C)NC(=O)OCc1ccccc1)C(=O)NC(Cc1c[nH]c2ccccc12)C(=O)O (centres unmarked) [Compound D, N-[2-[[hydroxy[2-[1-[4-methyl-1-oxo-2-[[(phenylmethoxy)carbonyl]amino]pentyl]amino]-2-phenylethyl]phosphinyl]methyl]-4-methyl-1-oxopentyl]-tryptophan]			ET-1 release following I/H (FIG. 6) [1]: attenuation
CC(C)C(CP(=O)(O)C(Cc1ccccc1)NC(=O)C(CCCCN)NS(C)(=O)=O)C(=O)N[C@@H](Cc1c[nH]c2ccccc12)C(=O)O (some centres unmarked)	0.5		
CC(C)CC(CP(=O)(O)C(Cc1ccccc1)NC(=O)C(CC(C)C)NC(=O)OCc1ccccc1)C(=O)N[C@@H](Cc1c[nH]c2ccccc12)C(=O)O (some centres unmarked)	0.16		
NCc1ccc(C(=O)N[C@@H](Cc2ccccc2)P(=O)(O)CC2(C(=O)N[C@@H](Cc3c[nH]c4ccccc34)C(=O)O)CCCC2)cc1 [Example 6]		0.09	
O=C(NC(Cc1ccc(C(=O)N2CCOCC2)cc1)P(=O)(O)CC1(C(=O)N[C@@H](Cc2c[nH]c3ccccc23)C(=O)O)CCCC1)OCc1ccccc1 (some centres unmarked) [Example 7]		0.05	
CC(C)CC(CP(=O)(O)C(Cc1ccc2ccccc2c1)NC(=O)C(CCCCN)NS(C)(=O)=O)C(=O)N[C@@H](Cc1c[nH]c2ccccc12)C(=O)O (single isomer, unassigned) [listing 1 of 2 here]	0.027		
CC(C)C(CP(=O)(O)C(Cc1ccc2ccccc2c1)NC(=O)C(CCCCNC(=O)OCc1ccccc1)NS(C)(=O)=O)C(=O)N[C@@H](Cc1c[nH]c2ccccc12)C(=O)O (some centres unmarked)	0.8		
CC(C)CC(CP(=O)(O)C(Cc1ccc2ccccc2c1)NC(=O)C(CCCCN)NS(C)(=O)=O)C(=O)N[C@@H](Cc1c[nH]c2ccccc12)C(=O)O (single isomer, unassigned) [listing 2 of 2 here]	0.068		
O=C(N[C@@H](Cc1ccccc1)P(=O)(O)CC1(C(=O)N[C@@H](Cc2c[nH]c3ccccc23)C(=O)O)CCCC1)OCc1ccccc1 [Example 1]		0.19	
CC(C)CC(CP(=O)(O)C(CCCCN)NC(=O)OCc1ccccc1)C(=O)N[C@@H](Cc1c[nH]c2ccccc12)C(=O)O (some centres unmarked) [Cbz, NH 2(CH2)4, H, iso-butyl]	0.4		
CC(C)CC(CP(=O)(O)C(CC1CCCC1)NC(=O)OCc1ccccc1)C(=O)N[C@@H](Cc1c[nH]c2ccccc12)C(=O)O (some centres unmarked) [Cbz, cyclopentylmethyl, H, iso-butyl]	1		
CC(C)C(CP(=O)(O)C(Cc1ccccc1)NC(=O)C(CCCCNC(=O)OCc1ccccc1)NS(C)(=O)=O)C(=O)N[C@@H](Cc1c[nH]c2ccccc12)C(=O)O (single isomer, unassigned)	1.5		
CC(C)CC(CP(=O)(O)C(Cc1ccc2ccccc2c1)NC(=O)C(CCCCNC(=O)OCc1ccccc1)NC(=O)C(CC(C)C)NS(C)(=O)=O)C(=O)N[C@@H](Cc1c[nH]c2ccccc12)C(=O)O (some centres unmarked)	0.23		
CC(C)C(CP(=O)(O)C(Cc1ccccc1)NC(=O)OCc1ccccc1)C(=O)N[C@@H](Cc1c[nH]c2ccccc12)C(=O)O (some centres unmarked) [Cbz, C6 H5CH2, H, iso-propyl]	1.3		
